Counter-ions that a name gives are not always drawn.
Experiments:
AML-OCI2 and AML-OCI3 [1] = experiment: Volumetric cell counts of AML lines treated with DR antagonists or agonists; format: cell-based, human; settings: 72 h, serum-free conditions
Method: The number of AML-OCI2 and AML-OCI3 cells present after 72 h treatment with DR antagonists (FIG. 16b) and agonist (FIG. 16c-d) were counted by measuring the number of events within a fixed volume following the grating strategy defined by forward scatter and side scatter clustering, 7AAD− and Hoechst+.
(§1) Due to the bioavailability of dopamine in fetal bovine serum (FBS) (Little et al., 2002), serum-free conditions were employed to assess the role of DRs in AML. […] DR D2-family and D1-family exert opposing actions on intracellular signaling leading to differential biological effects (Self et al., 1996).

[2] = tested on: primary AML cells (AML blast CFU); experiment: Methylcellulose blast-CFU assay, primary AML cells; format: cell-based, human; settings: for AML-blast CFU potential / formation: 24 h treatment before plating, salinomycin at 1 μM and 10 μM
Description: as §1

HSPCs / HSCs (CB lin-) = settings: in vivo
Method: (§2) NOD.Cg-Prkdc^scid ll2rg^tm1Wjl/SzJ adult mice (NSG) were sub-lethally irradiated with 315 rads 24 hours prior transplantation. 0.8-1.0×10^7 AML MNCs or 1.5-1.8×10^5 CB lin− hematopoietic cells treated with compound or DMSO-vehicle for 24 h were injected via tail vein (IV). After 6-10 weeks, animals were culled, and the BM and spleen were analyzed for the presence of human cells by flow cytometry (LSRII, BD) and data was analyzed using FlowJo software (Tree Star Inc). For secondary HSPC transplants, equal number of engrafted human cells from CB lin− transplants were injected IV in adult irradiated NSG mice as described for primary transplants.
(§3) To delineate whether the inhibition of AML-blasts detected in vitro was due to the compounds affecting the neoplastic stem cell compartment, xenotransplantation studies (Dick, 2008) that functionally define LSCs and hematopoietic stem cells (HSCs) were conducted (FIG. 12).

[3] = tested on: HL-60, MV4-11 and OCI-AML3; experiment: Cytotoxicity to leukemic cell lines (normalized cell number, 72 h); format: cell-based; settings: 10 μM
Method: (§4) All three lines are leukemic cell lines. HL-60 was derived from promyelocytic AML whereas MV 4-11 and OCI-AML3 are representative of AML. Each compound was incubated with the cells for 72 h. The control was DMSO (ie the vehicle used for the compound) for 72 h. Each condition had three replicates.
The dopamine receptor antagonist and phenothiazine-related compound chlorpromazine was also investigated for effects on the AML cell lines HL-60, MV4-11 and OCI-AML3. Testing was performed as set out in Example 1.

[4] = tested on: neoplastic hPSCs (v1H9-Oct4-GFP); experiment: Flow cytometry of Oct4+ cells in neoplastic hPSC; format: cell-based, human; settings: three concentrations; compared with BMP4 differentiation controls
AML LSCs = experiment: Xenotransplantation of compound-treated AML cells into NSG mice; format: in vivo, human; settings: 10 μM, cells treated 24 h before transplantation
Method: as §2, §3

neoplastic hPSCs [5] = experiment: TaqMan Low-Density Array-qPCR of differentiation genes; format: cell-based, human; settings: thioridazine-treated neoplastic hPSCs; >2 fold increase
Method: Cells in specific conditions were collected and RNA was extracted by using RNeasy kit (Qiagen), complementary DNA (cDNA) generation by using SuperScript III® cDNA synthesis kit (Invitrogen), pre-amplification and TaqMan® array reaction (Applied Biosystems) were performed according to manufacturer's instructions. The gene expression profile for each treated cell population was analyzed using TaqMan® Stem Cell Pluripotency Array Card on ViiA 7 Real-Time PCR System (Applied Biosystems). Each reaction sample was dispensed into loading wells on the array card and centrifuged twice at 336×g for 1 min each time, sealed, and placed in the thermal cycler. The following cycling conditions were used for all array card applications: 45° C. for 10 min, 94° C. for 10 min, and 40 cycles of 94° C. for 30 s followed by 60° C. for 1 min. Array data were normalized to 18S RNA and GAPDH and comparisons were performed using data analysis 2.0 software (Applied Biosystems).
Rapid accumulation of the cell stress marker p53 (FIG. 10d) and its transcriptional target p21 (FIG. 10e) were used to further distinguish differentiation induction from cellular toxicity.

[6] = tested on: HL-60, OCI-AML2 and OCI-AML3; experiment: Cytotoxicity of DR agonists/antagonists against AML cell lines; format: cell-based; settings: 72 h; CLOZ at higher concentrations
Method: as §4
A series of dopamine receptor agonists, D3-antagonists, DR1 & 5-antagonists and multi-receptor antagonists were tested for cytotoxicity against three AML cell lines HL-60, OCI-AML2 and OCI-AML3. Testing was performed as set out in Example 1.

AML-OCI2 and AML-OCI3 [7] = experiment: Induction of apoptosis in AML cancer cell lines (normal nuclei); format: cell-based, human
neoplastic hPSCs [8] = experiment: p53 and p21 staining of neoplastic hPSC; format: cell-based, human; settings: 24 h; compounds at 10 μM
Description: Antibodies used for immunocytochemistry were the following: Oct3/4 (BD Trunsduction Laboratories, cat#611203), Sox2 (R&D, cat#AF2018). To detect human hematopoietic cells, Pacific Blue−, PE−, APC− or FITC labeled anti-human CD45 was used (BD Biosciences). FITC anti-CD33, PE anti-CD13, FITC anti-CD41a, FITC anti-HLA DR, and PE anti-CD19 antibodies were obtained from BD Pharmingen. PE anti-CD14, PE anti-CD15 and PE anti-GlyA were acquired from Immunotech Beckman Coulter. To determine pluripotency, PE anti-SSEA3 (BD Biosciences) and PE- or AlexaFluor488 anti-Oct4 (BD Biosciences). Rabbit anti-human dopamine receptor antibodies; DRD1 (Cat#324390), DRD2 (Cat#324393), DRD3 (Cat#324402), DRD4 (Cat#324405) and DRD5 (Cat#324408) were sourced from EMD Chemical. Anti-rabbit Alexa-Fluor-488 (Molecular Probes) was used as the secondary antibody. Primary anti-p53 (Cat#2527) and anti-p21 (Cat#2947) rabbit IgG sourced from Cell Signaling Technology were used to stain fixed and permeabilized cells. Anti-rabbit alexa-Fluor-546 (Molecular Probes) was used as the secondary antibody. For breast tumor staining, APC anti-CD44 and PE-CD24 were sourced from BD Pharmingen.

[9] = tested on: normal HSCs / HSPC (CB lin-); experiment: Methylcellulose colony-forming assay, normal HSC/HSPC; format: cell-based, human; settings: for HSPC CFU potential: 24 h treatment before plating, 0.1, 1, 10 μM tested
Method: Normal HSCs and progenitors were sourced from either mobilized peripheral blood or umbilical cord blood of health patients.
Patient HSPC and AML samples were treated with compound or DMSO-vehicle (0.1%) for 24 h prior to CFU plating or xenotransplantation studies.
AML patient or CB lin− cells were cultured 24 hours in the presence of compound or DMSO-vehicle (0.1%) control. […] CB lin− cells were plated at 1000 cells/mL in Methocult GF H4434 (Stem Cell Technologies). Colonies were scored after 14 days of culture using standard morphological criteria.

[10] = tested on: v1O4 cells (v1H9-Oct4-GFP); experiment: Library screen on variant neoplastic stem cells (LOP and cell count); format: cell-based, human; settings: for hit: loss of pluripotency and reduction in cell counts: 10 μM or 1 μM, 72 hours, Z-score more than 3 SD
Method: Compounds that reduced cell counts below 100 were classified as highly toxic and not considered as useful.
Briefly, v1O4 cells were seeded into Matrigel-coated 96 well plates (5000 cells/well) containing mouse embryonic fibroblast conditioned media (MEFCM) supplemented with 8 ng/mL bFGF, and treated for 72 hours with compounds dissolved in DMSO. The final concentration of each compound used in treatment was either 10 μM or 1 μM (n=3). Control wells were treated with 0.1% DMSO (low control) or 100 ng/ml BMP4 (high control to induce LOP). At the end of 72 hours, cells were fixed, stained with Hoechst and imaged by automated microscopy. GFP intensity and Hoechst signal were quantified as measures of LOP and cell count, respectively, and compounds with a Z-score of more than 3 standard deviations from the mean for reduced cell count and LOP were chosen as hits.

[11] = tested on: v1O4 cells versus H9 cells; experiment: Dose-response cell counts, v1O4 versus H9 (selective-activity potency ratio); format: cell-based, human; settings: single 10 μM concentration point; selective at other concentrations
Method: The first step in the screening process, the primary screen, is shown in FIG. 21, step 1 and is also described in FIG. 17 and Example 13. […] These compounds then undergo a further set of analysis described in FIG. 21, step 2. […] 8- or 10-point dilutions for each compound are tested on variant neoplastic stem cells (V1O4) and normal stem cells (H9 cells) cells to generate dose-response curves. […] Dose response data were fit with a 4-parameter Hill equation to derive EC50, slopes, min and max values using IDBS ActivityBase software. The EC50 values are then used to calculate a selective-activity potency ratio (H9 EC50/v1O4 EC50). […] The efficacy of each compound can also be quantified by analysis if the derived min value from the 4-parameter Hill fit. An alternative metric for selective activity is an efficacy comparison. Selective EFFICACY=H9−FittedMin−v1O4−FittedMin.
Selectivity activity ratios [EC50 (v1O4)/EC50 (H9)] were calculated as discussed in Example 15 for a number of compounds screened using the methods described herein.

[12] = sorted patient AML cells, 24 h treatment

CSc1ccc2c(c1)N(CCC1CCCCN1C)c1ccccc1S2 (racemic) [thioridazine, 10-{2-[(RS)-1-Methylpiperidin-2-yl]ethyl}-2-methylsulfanylphenothiazine]
number of AML cells (AML-OCI2 and AML-OCI3 [1]): reduced the number of AML cells | number of AML CFU blast colonies ([2]; 10 μM, control about 22, at least 14 days): 1.6 blast colonies | AML-blast CFU potential / formation [2]: reduced AML-blast CFU formation | blast-CFU generation, DR+ subfraction [2, 12]: reduction in blast-CFU generation | blast-CFU generation, DR− subfraction [2, 12]: no reduction | HSC self-renewal (HSPCs / HSCs (CB lin-)): did not affect HSC self-renewal | normalized cell number / toxicity [3]: reduced to almost zero | cell number and levels of Oct4 in neoplastic hPSCs [4]: reduce levels of Oct4 below BMP4 differentiation controls | AML LSC capacity (CD45+ CD33+ blast engraftment) (AML LSCs): significantly reduce leukemic disease-initiating AML LSCs | differentiation-associated genes upregulated (neoplastic hPSCs [5]): 21 of 50 | cytotoxicity of AML cell lines [6]: significant effect on cytotoxicity | induction of apoptosis / cell death (AML-OCI2 and AML-OCI3 [7]): exerts its effects on these cell lines through cell death | accumulation of p53 and p21 (neoplastic hPSCs [8]): no accumulation of p53 or p21 | colony forming potential of normal HSCs ([9]; 10 μM, DMSO control about 100, at least 14 days): about 66 total colonies | HSPC CFU potential [9]: little effect on HSPC CFU potential | hit: loss of pluripotency and reduction in cell counts [10]: identified as a hit | signs of cell stress/death (Hoechst nuclear stain) ([10]; 10 μM, 3-day treatment): less signs of cell stress/death than cells treated with thiostrepton

Br.CCCN(CCC)[C@@H]1CCc2ccc(O)cc2C1 [7OH-DPAT, R(+)-7-Hydroxy-DPAT hydrobromide]
number of AML cells (AML-OCI2 and AML-OCI3 [1]): increased the number of AML cells

Nc1nc2nn[nH]c2c(=O)[nH]1 [8-azaguanine]
selectivity for cancer stem cells at a single concentration point [11]: would have not be considered selective for cancer stem cells

Cn1cc(C2=C(c3cn(CCCSC(=N)N)c4ccccc34)C(=O)NC2=O)c2ccccc21 [31-8220]
selectivity for cancer stem cells at a single concentration point [11]: would have not be considered selective for cancer stem cells

Oc1cc2c(cc1O)[C@@H](c1ccccc1)CNCC2 [SKF38393, (R)-(+)-SKF-38393 hydrochloride]
number of AML cells (AML-OCI2 and AML-OCI3 [1]): significant reduction in AML cell number

CN(C)CCCN1c2ccccc2Sc2ccc(Cl)cc21 [chlorpromazine, Chlorpromazine hydrochloride]
number of AML cells (AML-OCI2 and AML-OCI3 [1]): reduced the number of AML cells | normalized cell number / toxicity [3]: toxic to AML cell lines | cytotoxicity of AML cell lines [6]: significant effect on cytotoxicity | hit: loss of pluripotency and reduction in cell counts [10]: did not have a comparable effect on v1O4 cells

CN1CCN(C2=Nc3cc(Cl)ccc3Nc3ccccc32)CC1 [clozapine, Clozapine]
cytotoxicity of AML cell lines [6]: significant effect on cytotoxicity

COc1cc([C@@H]2c3cc4c(cc3[C@@H](O[C@@H]3O[C@@H]5CO[C@@H](C)O[C@H]5[C@H](O)[C@H]3O)[C@H]3COC(=O)[C@H]23)OCO4)cc(OC)c1O [etoposide]
accumulation of p53 and p21 (neoplastic hPSCs [8]): high levels of p53 and p21

OCCN1CCN(CCCN2c3ccccc3Sc3ccc(C(F)(F)F)cc32)CC1 [fluphenazine]
hit: loss of pluripotency and reduction in cell counts [10]: identified as hits

OC(c1cc(C(F)(F)F)nc2c(C(F)(F)F)cccc12)C1CCCCN1 (stereo not shown) [mefloquine]
AML-blast CFU potential / formation [2]: reduced AML-blast CFU formation | cell number and levels of Oct4 in neoplastic hPSCs [4]: reductions in cell number and the levels of Oct4 | AML LSC capacity (CD45+ CD33+ blast engraftment) (AML LSCs): ineffective in reducing AML LSC capacity | HSPC CFU potential [9]: little effect on HSPC CFU potential

CCCCc1ccc2[nH]c(NC(=O)OC)nc2c1 [parbendazole]
selectivity for cancer stem cells at a single concentration point [11]: would have not be considered selective for cancer stem cells

OCCN1CCN(CCCN2c3ccccc3Sc3ccc(Cl)cc32)CC1 [perphenazine]
hit: loss of pluripotency and reduction in cell counts [10]: identified as hits

CN1CCN(CCCN2c3ccccc3Sc3ccc(Cl)cc32)CC1 [prochlorperazine]
hit: loss of pluripotency and reduction in cell counts [10]: identified as hits

CC[C@@H](C(=O)[C@@H](C)[C@@H](O)[C@H](C)[C@@H]1O[C@@H]([C@@H](CC)C(=O)O)CC[C@@H]1C)[C@H]1O[C@]2(C=C[C@@H](O)[C@]3(CC[C@@](C)([C@H]4CC[C@](O)(CC)[C@H](C)O4)O3)O2)[C@H](C)C[C@@H]1C [salinomycin]
AML-blast CFU potential / formation [2]: reduced AML-blast CFU potential | HSPC CFU potential [9]: reduced HSPC CFU potential over all doses tested

CN1CCN(CCCN2c3ccccc3Sc3ccc(C(F)(F)F)cc32)CC1 [trifluoperazine]
hit: loss of pluripotency and reduction in cell counts [10]: identified as hits

CN(C)CCCN1c2ccccc2Sc2ccc(C(F)(F)F)cc21 [triflupromazine]
hit: loss of pluripotency and reduction in cell counts [10]: identified as hits

BMP4: positive control that induces differentiation / loss of pluripotency, 100 ng/ml
accumulation of p53 and p21 (neoplastic hPSCs [8]): no accumulation of p53 or p21

Source: patent US9566282B2, “Methods for identifying and validating selective anti-cancer stem cell agents” (MCMASTER UNIVERSITY, priority 2011, dated 2017)
